Data as given in ChEMBL document CHEMBL4229381, “New cytokinin derivatives possess UVA and UVB photoprotective effect on human skin cells and prevent oxidative stress” (Eur J Med Chem, 2018).
Calls of active or inactive are those of the source. No cut-off for these calls is given here.

Columns and labels:
[1] = Phototoxicity in human HaCaT cells assessed as cell viability at 62.5 uM preincubated for 60 mins followed by 7.5 J/cm2 UVA irradiation and measured after 24 hrs by neutral red uptake assay relative to control; type: cell-based; settings: read-out: Activity
NHDF [2] = assay: Cytoprotection against phototoxicity in human NHDF cells assessed as increase in cell viability at 3.9 to 31.3 uM preincubated for 60 mins followed by 150 mJ/cm2 UVB irradiation and measured after 24 hrs by neutral red uptake assay; type: functional, cell-based
[3] = Phototoxicity in human NHDF cells assessed as cell viability at 125 uM preincubated for 60 mins followed by 5 J/cm2 UVA irradiation and measured after 24 hrs by neutral red uptake assay relative to control; type: cell-based; settings: read-out: Activity
[4] = Stability of the compound in pH 5 solution at 10^-4 M after 1 hr by HPLC analysis; type: physicochemical; settings: read-out: Stability
[5] = Phototoxicity in human NHDF cells assessed as cell viability at 3.9 uM preincubated for 60 mins followed by 5 J/cm2 UVA irradiation and measured after 24 hrs by neutral red uptake assay relative to control; type: cell-based; settings: read-out: Activity
[6] = Phototoxicity in human HaCaT cells assessed as cell viability at 7.8 uM preincubated for 60 mins followed by 7.5 J/cm2 UVA irradiation and measured after 24 hrs by neutral red uptake assay relative to control; type: cell-based; settings: read-out: Activity
[7] = Cytotoxicity in human HaCaT cells assessed as cell viability at 15.6 uM after 24 hrs by neutral red uptake assay relative to control; type: cell-based; settings: read-out: Activity
[8] = Stability of the compound in pH 5 solution at 10^-4 M after 24 hrs by HPLC analysis; type: physicochemical; settings: read-out: Stability
[9] = Phototoxicity in human NHDF cells assessed as cell viability at 15.6 uM preincubated for 60 mins followed by 5 J/cm2 UVA irradiation and measured after 24 hrs by neutral red uptake assay relative to control; type: cell-based; settings: read-out: Activity
[10] = Phototoxicity in human NHDF cells assessed as cell viability at 62.5 uM preincubated for 60 mins followed by 5 J/cm2 UVA irradiation and measured after 24 hrs by neutral red uptake assay relative to control; type: cell-based; settings: read-out: Activity
NHDF [11] = assay: Potency index, ratio of compound effect to rosmarinic acid effect for cytoprotection against phototoxicity in human NHDF cells assessed as increase in cell viability at 3.9 uM preincubated for 60 mins followed by 7.5 J/cm2 UVA irradiation and measured after 24 hrs by neutral red uptake assay; type: functional
[12] = Cytotoxicity in human NHDF cells assessed as cell viability at 15.6 uM after 24 hrs by neutral red uptake assay relative to control; type: cell-based; settings: read-out: Activity
[13] = Cytotoxicity in human NHDF cells assessed as cell viability at 31.3 uM after 24 hrs by neutral red uptake assay relative to control; type: cell-based; settings: read-out: Activity
[14] = Stability of the compound in pH 4 solution at 10^-4 M after 24 hrs by HPLC analysis; type: physicochemical; settings: read-out: Stability
NHDF [15] = assay: Cytoprotection against phototoxicity in human NHDF cells assessed as increase in cell viability at 3.9 uM preincubated for 60 mins followed by 7.5 J/cm2 UVA irradiation and measured after 24 hrs by neutral red uptake assay; type: functional, cell-based
[16] = Cytotoxicity in human HaCaT cells assessed as cell viability at 3.9 uM after 24 hrs by neutral red uptake assay relative to control; type: cell-based; settings: read-out: Activity
[17] = Stability of the compound in pH 3 solution at 10^-4 M after 1 hr by HPLC analysis; type: physicochemical; settings: read-out: Stability
HaCaT [18] = assay: Cytoprotection against phototoxicity in human HaCaT cells assessed as increase in cell viability at 3.9 uM preincubated for 60 mins followed by 10 J/cm2 UVA irradiation and measured after 24 hrs by neutral red uptake assay; type: functional, cell-based
[19] = Cytotoxicity in human NHDF cells assessed as cell viability at 62.5 uM after 24 hrs by neutral red uptake assay relative to control; type: cell-based; settings: read-out: Activity
Caenorhabditis elegans [20] = assay: Protection against juglone-induced oxidative stress in wild type Caenorhabditis elegans N2 at 100 uM preincubated for 3 days followed by juglone addition and measured after 4 hrs by inverted microscopic analysis; type: functional, organism-based
BJ = assay: Cytotoxicity in human BJ cells assessed as reduction in cell viability at 50 uM after 24 hrs by resazurin dye-based fluorescence assay relative to control
Caenorhabditis elegans [21] = assay: Protection against juglone-induced oxidative stress in Caenorhabditis elegans BA17 (fem-1) at 100 uM preincubated for 3 days followed by juglone addition measured every hour for 12 ro 14 hrs by inverted microscopic analysis; type: functional, organism-based
[22] = Cytotoxicity in human NHDF cells assessed as cell viability at 3.9 uM after 24 hrs by neutral red uptake assay relative to control; type: cell-based; settings: read-out: Activity
NHDF [23] = assay: Cytoprotection against phototoxicity in human NHDF cells assessed as increase in cell viability at 3.9 to 31.3 uM preincubated for 60 mins followed by 7.5 J/cm2 UVA irradiation and measured after 24 hrs by neutral red uptake assay; type: functional, cell-based
[24] = Stability of the compound in pH 4 solution at 10^-4 M after 1 hr by HPLC analysis; type: physicochemical; settings: read-out: Stability
[25] = Cytotoxicity in human HaCaT cells assessed as cell viability at 31.3 uM after 24 hrs by neutral red uptake assay relative to control; type: cell-based; settings: read-out: Activity
[26] = Cytotoxicity in human NHDF cells assessed as cell viability at 7.8 uM after 24 hrs by neutral red uptake assay relative to control; type: cell-based; settings: read-out: Activity
HaCaT [27] = assay: Potency index, ratio of compound effect to rosmarinic acid effect for cytoprotection against phototoxicity in human HaCaT cells assessed as increase in cell viability at 3.9 uM preincubated for 60 mins followed by 150 mJ/cm2 UVB irradiation and measured after 24 hrs by neutral red uptake assay; type: functional
[28] = Stability of the compound in pH 6 solution at 10^-4 M after 1 hr by HPLC analysis; type: physicochemical; settings: read-out: Stability
Triticum aestivum = assay: Anti-senescent activity in leaf of Triticum aestivum cv. Hereward seedlings by measuring chlorophyll retention at 10^-4 mol/L after 4 days relative to control; type: functional
[29] = Cytotoxicity in human HaCaT cells assessed as cell viability at 62.5 uM after 24 hrs by neutral red uptake assay relative to control; type: cell-based; settings: read-out: Activity
[30] = Cytotoxicity in human HaCaT cells assessed as cell viability at 7.8 uM after 24 hrs by neutral red uptake assay relative to control; type: cell-based; settings: read-out: Activity
[31] = Phototoxicity in human HaCaT cells assessed as cell viability at 125 uM preincubated for 60 mins followed by 7.5 J/cm2 UVA irradiation and measured after 24 hrs by neutral red uptake assay relative to control; type: cell-based; settings: read-out: Activity
[32] = Phototoxicity in human NHDF cells assessed as cell viability at 31.3 uM preincubated for 60 mins followed by 5 J/cm2 UVA irradiation and measured after 24 hrs by neutral red uptake assay relative to control; type: cell-based; settings: read-out: Activity
HaCaT [33] = assay: Cytoprotection against phototoxicity in human HaCaT cells assessed as increase in cell viability at 3.9 to 31.3 uM preincubated for 60 mins followed by 10 J/cm2 UVA irradiation and measured after 24 hrs by neutral red uptake assay; type: functional, cell-based
[34] = Phototoxicity in human NHDF cells assessed as cell viability at 7.8 uM preincubated for 60 mins followed by 5 J/cm2 UVA irradiation and measured after 24 hrs by neutral red uptake assay relative to control; type: cell-based; settings: read-out: Activity

For c1csc(CNc2ncnc3c2ncn3C2CCCO2)c1 (stereo unspecified), which viability at 24 h, 62.5 µM [1] is on record?
The viability at 24 h, 62.5 µM was 130%.

And the Activity (NHDF [2])?
Its Activity is “Active”.

And the viability at 24 h, 125 µM [3]?
The viability at 24 h, 125 µM was 106%.

And the remaining at 1 h, 100 µM [4]?
Its remaining at 1 h, 100 µM is 100%.

And the viability at 24 h, 3.9 µM [5]?
Its viability at 24 h, 3.9 µM is 98%.

What about the viability at 24 h, 7.8 µM [6] of the same compound?
The viability at 24 h, 7.8 µM was 124%.

What about the viability at 24 h, 15.6 µM [7] of the same compound?
Its viability at 24 h, 15.6 µM is 100%.

What about the remaining at 24 h, 100 µM [8] of the same compound?
The remaining at 24 h, 100 µM was 94.2%.

What about the viability at 24 h, 15.6 µM [9] of the same compound?
Its viability at 24 h, 15.6 µM is 101%.

And the viability at 24 h, 62.5 µM [10]?
Its viability at 24 h, 62.5 µM is 103%.

What about the Ratio (NHDF [11]) of the same compound?
Its Ratio is greater than 6.

What about the viability at 24 h, 15.6 µM [12] of the same compound?
Its viability at 24 h, 15.6 µM is 100%.

What about the viability at 24 h, 31.3 µM [13] of the same compound?
The viability at 24 h, 31.3 µM was 107%.

What about the remaining at 24 h, 100 µM [14] of the same compound?
The remaining at 24 h, 100 µM was 52.1%.

And the Activity (NHDF [15])?
Its Activity is “Active”.

What about the viability at 24 h, 3.9 µM [16] of the same compound?
Its viability at 24 h, 3.9 µM is 101%.

And the remaining at 1 h, 100 µM [17]?
Its remaining at 1 h, 100 µM is 94.6%.

What about the Activity (HaCaT [18]) of the same compound?
The Activity was “Active”.

What about the viability at 24 h, 62.5 µM [19] of the same compound?
The viability at 24 h, 62.5 µM was 108%.

And the Activity (Caenorhabditis elegans [20])?
Its Activity is “Active”.

And the Activity (BJ)?
Its Activity is less than 10%.

And the Activity (Caenorhabditis elegans [21])?
The Activity was “Active”.

What about the viability at 24 h, 3.9 µM [22] of the same compound?
Its viability at 24 h, 3.9 µM is 100%.

And the Activity (NHDF [23])?
Its Activity is “Active”.

What about the remaining at 1 h, 100 µM [24] of the same compound?
Its remaining at 1 h, 100 µM is 99.4%.

And the viability at 24 h, 31.3 µM [25]?
The viability at 24 h, 31.3 µM was 102%.

And the viability at 24 h, 7.8 µM [26]?
Its viability at 24 h, 7.8 µM is 103%.

What about the Ratio (HaCaT [27]) of the same compound?
The Ratio was greater than 2.

And the remaining at 1 h, 100 µM [28]?
Its remaining at 1 h, 100 µM is 100%.

What about the Activity (Triticum aestivum) of the same compound?
Its Activity is 102%.

And the viability at 24 h, 62.5 µM [29]?
The viability at 24 h, 62.5 µM was 104%.

What about the viability at 24 h, 7.8 µM [30] of the same compound?
The viability at 24 h, 7.8 µM was 101%.

What about the viability at 24 h, 125 µM [31] of the same compound?
Its viability at 24 h, 125 µM is 127%.

And the viability at 24 h, 31.3 µM [32]?
The viability at 24 h, 31.3 µM was 106%.

What about the Activity (HaCaT [33]) of the same compound?
Its Activity is “Active”.

What about the viability at 24 h, 7.8 µM [34] of the same compound?
Its viability at 24 h, 7.8 µM is 102%.
